The results in this text go back to patent US5716958A, “Amino acid derivative having anti-CCK activity” (Tobishi Pharmaceutical Co., Ltd., priority 1994, dated 1998).

Where two headings read alike, the source gives them in different places.

Experiment [1] relates to extracted guinea pig ileum. Put plainly: Anti-CCK action in extracted guinea pig ileum (inhibition of CCK-8-induced contraction, Magnus tube). Also noted: species or system guinea pig (Hartley strain, male). To be noted: Cavia porcellus; contraction by 1×10^-8 M CCK-8, test compound added 5 minutes before; extracted ileum, 37° C; read-out: Active IC50. How it is done:
Anti-cholecystokinin (CCK) Action in Extracted Guinea Pig Ileum After sacrificing a male guinea pig (Hartley strain) by striking and exsanguination, a piece of extracted ileum was suspended from a Magnus tube, while applying tension of 0.5 g, containing 30 ml of Tyrode's solution (NaCl 136.9 mM, KCl 2.68 mM, CaCl2 1.8 mM, MgCl2 1.05 mM, NaH2 PO4 0.42 mM, NaHCO3 11.9 mM and glucose 5.55 mM) and ventilated with mixed O2 gas containing 5% CO2 at 37° C. Changes in contraction were recorded on smoked paper for isotonicity via a bevel. The piece of ileum was allowed to stand undisturbed for 30 minutes and then contracted by addition 1×10^-8 M CCK-8. After washing, this was repeated several times. After the contraction by CCK-8 had stabilized, the test compound was added. Contraction resulting from addition of 1×10^-8 M CCK was then measured 5 minutes later. The contraction caused by CCK-8 and the contraction caused by CCK-8 in the presence of the test compound at varying concentrations were compared, and the resulting IC50 values (concentration of test substance at which contraction caused by CCK-8 is inhibited by 50%) are shown in Table 2. The compound numbers shown in Table 2 indicate the target compounds according to the numbers of the embodiments.

Another experiment deals with T1, CCK-B (Rattus norvegicus, UniProt P30553).
T1 construct: CCK-B receptors originating in the cell membrane of rat brain cells; from tissue; host or cells: rat cerebrum membranes (male rats, Japan Laboratory Animals)
T1 sequence (P30553 1-452): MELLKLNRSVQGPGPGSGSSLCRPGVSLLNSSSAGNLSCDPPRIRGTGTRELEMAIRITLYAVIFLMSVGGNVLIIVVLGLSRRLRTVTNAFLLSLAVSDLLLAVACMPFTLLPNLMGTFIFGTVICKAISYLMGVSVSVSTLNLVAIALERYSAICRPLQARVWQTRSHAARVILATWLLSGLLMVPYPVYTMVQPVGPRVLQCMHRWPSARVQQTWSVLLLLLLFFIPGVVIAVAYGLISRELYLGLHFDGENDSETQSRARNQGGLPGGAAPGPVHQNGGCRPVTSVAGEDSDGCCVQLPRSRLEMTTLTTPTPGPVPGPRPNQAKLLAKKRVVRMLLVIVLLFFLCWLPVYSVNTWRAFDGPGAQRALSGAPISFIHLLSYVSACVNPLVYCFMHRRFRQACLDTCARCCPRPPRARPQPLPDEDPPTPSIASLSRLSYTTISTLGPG
Put plainly: Central receptor (CCK-B) binding experiment, [^3 H]-CCK-8 binding inhibition. Particulars: rat cerebrum homogenate, 0.2 nM [^3 H]-CCK-8, 60 minutes at 25° C. How it is done:
(§1) Peripheral Receptor (CCK-A) and Central Receptor (CCK-B) Binding Experiment
(§2) The pancreas and cerebrum of male rats (Japan Laboratory Animals), which were sacrificed by decapitation and having body weights of 250-300 g, were extracted and immersed in cold Hepes buffer. After suspending these tissues using a Potter homogenizer, the suspension was centrifuged for 10 minutes at 48,000×g. The resulting residue was again suspended by addition of cold Hepes buffer and centrifuged for 10 minutes at 48,000×g. The resulting residue was transferred to cold incubation buffer.
(§3) A 1 ml aliquot of the homogenate was incubated for 60 minutes at 25° C. in the presence of 0.2 nM [^3 H]-CCK-8 and the test compound, in the presence of vehicle only (for measurement of 100% binding), or in the presence of 1 μM cold CCK-8 (for measurement of non-specific binding). Next, the reaction solution was promptly suction filtered using a Whatman glass GF/B filter immersed in Hepes buffer followed by washing the filter with cold Hepes buffer. Next, the glass filter was placed in Aquasol-2 followed by assay of radioactivity with a liquid scintillation counter.
(§4) The compound numbers shown in Table 3 indicate the target compounds according to the number of the embodiment.

For another experiment, the target named is T2, CCK-A (Rattus norvegicus, UniProt P30551).
T2 construct: CCK-A receptors prepared from the cell membranes of rat pancreas; from tissue; host or cells: rat pancreas membranes (male rats, Japan Laboratory Animals)
T2 sequence (P30551 1-444): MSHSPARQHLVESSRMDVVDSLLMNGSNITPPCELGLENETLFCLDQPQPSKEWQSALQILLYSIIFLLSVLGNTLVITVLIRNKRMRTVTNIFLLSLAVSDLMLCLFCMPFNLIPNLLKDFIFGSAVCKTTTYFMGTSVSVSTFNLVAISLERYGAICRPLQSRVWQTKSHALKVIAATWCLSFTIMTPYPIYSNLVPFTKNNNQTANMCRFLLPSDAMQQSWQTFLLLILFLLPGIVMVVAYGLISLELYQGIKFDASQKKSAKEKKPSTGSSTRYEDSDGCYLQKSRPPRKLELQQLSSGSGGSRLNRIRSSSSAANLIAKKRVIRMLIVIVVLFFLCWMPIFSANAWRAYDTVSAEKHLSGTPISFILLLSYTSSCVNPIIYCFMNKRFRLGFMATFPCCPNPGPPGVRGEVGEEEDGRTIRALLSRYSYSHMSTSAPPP
The experiment in a line: Peripheral receptor (CCK-A) binding experiment, [^3 H]-CCK-8 binding inhibition. To be noted: for CCK-B/CCK-A: ratio of IC50 values CCK-B/CCK-A (selectivity for CCK-A), 60 min. The procedure:
as §1, §2, §3, §4

Setting [2] is: rat pancreas homogenate, 0.2 nM [^3 H]-CCK-8, 60 minutes at 25° C, read-out: CCK-A IC50.
Where [3] appears, read: rat pancreas cell membranes, read-out: activity in binding experiment on CCK-A receptors prepared from the cell membranes of rat pancreas.

Turning to `CCCCCN(CCCOC)C(=O)C(CCC(=O)O)NC(=O)c1ccc(Cl)c(Cl)c1` (stereo not drawn) [CR1505, Loxiglumide, reference compound], the IC50 in experiment [1] worked out at 3.3 µM; on CCK-B, 24 µM; on CCK-A (setting [2]) it was 1.5 µM. Also, on CCK-A, the CCK-B/CCK-A turned out to be 16.
For `O=C(N[C@@H](CSc1ncccc1C(=O)O)C(=O)N1CCN(C(c2ccccc2)c2ccccc2)CC1)c1cc2ccccc2[nH]1` [Compound 1-6, (R)-1-[3-(3-carboxypyridin-2-yl)thio-2-(indol-2-yl)carbonylamino]propionyl-4-diphenylmethylpiperazine], the IC50 in experiment [1] worked out at 0.013 µM; at CCK-B, 14 µM; at CCK-A (setting [3]), 0.0051 µM; at CCK-A (setting [2]) it was 0.0051 µM. For the same molecule, the CCK-B/CCK-A at CCK-A is 2745.
Consider `O=C(N[C@@H](CSc1ncccc1C(=O)O)C(=O)N1CCC(C(c2ccccc2)c2ccccc2)CC1)c1cc2ccccc2[nH]1` [Compound 2-6, (R)-4-diphenylmethyl-1-[3-(3-carboxypyridin-2-yl)thio-2-(indol-2-yl)carbonylamino)propionylpiperidine], for which the IC50 was 0.06 µM in experiment [1], 57 µM at CCK-B, 0.0043 µM on CCK-A (setting [3]) and 0.0043 µM at CCK-A (setting [2]). On CCK-A, the CCK-B/CCK-A is listed as 13256.
Turning to `COc1ccc2[nH]c(C(=O)N[C@@H](CSc3ncccc3C(=O)O)C(=O)N3CCN(C(c4ccccc4)c4ccccc4)CC3)cc2c1` [Compound 6-2, (R)-1-[3-(3-carboxypyridin-2-yl)thio-2-(5-methoxyindol-2-yl)carbonylamino]propionyl-4-diphenylmethylpiperazine], the IC50 in experiment [1] is 0.052 µM; at CCK-B it was 18 µM; on CCK-A (setting [2]), 0.043 µM. For the same molecule, at CCK-A, the CCK-B/CCK-A came out at 419.
For `COc1ccc(C(c2ccc(OC)cc2)N2CCN(C(=O)[C@H](CSc3ncccc3C(=O)O)NC(=O)c3cc4ccccc4[nH]3)CC2)cc1` [Compound 7-4, (R)-4-bis(4-methoxyphenyl)methyl-1-[3-(3-carboxypyridin-2-yl)thio-2-(indol-2-yl)carbonylamino]propionylpiperazine], the IC50 is 61 µM on CCK-B and 0.8 µM on CCK-A (setting [2]). Moreover, the CCK-B/CCK-A on CCK-A was 76.
In the same order, the values of `O=C(N[C@@H](CSc1ccccc1C(=O)O)C(=O)N1CCN(C(c2ccccc2)c2ccccc2)CC1)c1cc2ccccc2[nH]1` [Compound 9-3, (R)-1-[3-(2-carboxyphenyl)thio-2-(indol-2-yl)carbonylamino]propionyl-4-diphenylmethylpiperazine] are 6 µM, 0.21 µM and 29.
Take `O=C(N[C@@H](CSc1ncccc1C(=O)O)C(=O)N1CCN(C2c3ccccc3CCc3ccccc32)CC1)c1cc2ccccc2[nH]1` [Compound 19-5, (R)-1-[3-(3-carboxypyridin-2-yl)thio-2-(indol-2-yl)carbonylamino]propionyl-4-(10,11-dihydro-5H-dibenzo[a,d]cyclohepten-5-yl)piperazine]: the results for the IC50 on CCK-B, on CCK-A (setting [3]) and on CCK-A (setting [2]) were 64 µM, 0.009 µM and 0.009 µM, respectively. In addition, the CCK-B/CCK-A at CCK-A came to 7111.
Take `O=C(N[C@@H](CSc1ncccc1C(=O)O)C(=O)N1CCC(C(c2ccccc2)c2ccccc2)CC1)c1cc2cc(Cl)ccc2[nH]1` [Compound 20-2, (R)-1-[3-(3-carboxypyridin-2-yl)thio-2-(5-chloroindol-2-yl)carbonylamino]propionyl-4-diphenylmethylpiperidine]: the results for the IC50 on CCK-B and at CCK-A (setting [2]) were over 1000 µM and 0.06 µM, respectively. Also, the CCK-B/CCK-A at CCK-A is reported as over 16667.
In the same order, the values of `COc1ccc2[nH]c(C(=O)N[C@@H](CSc3ncccc3C(=O)O)C(=O)N3CCC(C(c4ccccc4)c4ccccc4)CC3)cc2c1` [Compound 21-2, (R)-1-[3-(3-carboxypyridin-2-yl)thio-2-(5-methoxyindol-2-yl)carbonylamino]propionyl-4-diphenylmethylpiperidine] are 1700 µM, 0.013 µM and 130770.
As for `O=C(N[C@@H](CCCn1nnc(C(=O)O)c1C(=O)O)C(=O)N1CCN(C(c2ccccc2)c2ccccc2)CC1)c1cc2ccccc2[nH]1` [Compound 23-6, (S)-1-[5-(4,5-dicarboxy-1,2,3-triazol-1-yl)-2-(indol-2-yl)carbonylamino]valeryl-4-diphenylmethylpiperazine], the IC50 is 25 µM at CCK-B and 0.14 µM on CCK-A (setting [2]). Further, the CCK-B/CCK-A on CCK-A came to 179.
In the same order, the values of `O=C(N[C@@H](CCSc1ncccc1C(=O)O)C(=O)N1CCN(C(c2ccccc2)c2ccccc2)CC1)c1cc2ccccc2[nH]1` [Compound 25-7, (S)-1-[4-(3-carboxypyridin-2-yl)thio-2-(indol-2-yl)carbonylamino]butyryl-4-diphenylmethylpiperazine] are 12 µM, 0.21 µM and 57.
In the same order, the values of `O=C(N[C@@H](CCCn1nncc1C(=O)O)C(=O)N1CCN(C(c2ccccc2)c2ccccc2)CC1)c1cc2ccccc2[nH]1` [Compound 28-3, (S)-1-[5-(5-carboxy-1,2,3-triazol-1-yl)-2-(indol-2-yl)carbonylamino]valeryl-4-diphenylmethylpiperazine] are 3 µM, 0.07 µM and 43.
The corresponding values for `O=C(O)c1cn(CCC[C@H](NC(=O)c2cc3ccccc3[nH]2)C(=O)N2CCN(C(c3ccccc3)c3ccccc3)CC2)nn1` [Compound 29-2, (S)-1-[5-(4-carboxy-1,2,3-triazol-1-yl)-2-(indol-2-yl)carboxyamino]valeryl-4-diphenylmethylpiperazine] are 26 µM, 1.5 µM and 17.
For `O=C(N[C@@H](Cn1nnc(C(=O)O)c1C(=O)O)C(=O)N1CCN(C(c2ccccc2)c2ccccc2)CC1)c1cc2ccccc2[nH]1` [Compound 31-3, (S)-1-[3-(4,5-dicarboxy-1,2,3-triazol-1-yl)-2-(indol-2-yl)carbonylamino]propionyl-4-diphenylmethylpiperazine], the IC50 in experiment [1] amounted to 0.032 µM.
The same measure, in the same setting: with `O=C(N[C@@H](Cn1nncc1C(=O)O)C(=O)N1CCN(C(c2ccccc2)c2ccccc2)CC1)c1cc2ccccc2[nH]1` [Compound 32-2, (S)-4-diphenylmethyl-1-[3-(5-carboxy-1,2,3-triazol-1-yl)-2-(indol-2-yl)carbonylamino]propionylpiperazine] the figure was 0.036 µM.
